Results on two compounds are retold here after patent publication US9974782B2, “Phosphodiesterase inhibitors and uses thereof” (THE TRUSTEES OF COLUMBIA UNIVERSITY IN THE CITY OF NEW YORK, priority 2008, dated 2018).

Values joined by “and” are separate entries in the source; they are usually repeats but may differ in a detail not shown here. Equal values may be shown once. “Also recorded” adds a separate entry of the source. Read-outs that look alike come from different tables or passages of the source.

For data set [1], the system named is APP/PS1 mice. The data set is described as follows: Radial-arm water maze (spatial working memory). It is filed as in vivo, mouse. To be noted: for minimum time needed for a positive effect on spatial working memory: 3 mg/kg. From the text:
Next, the effect of treatment with sildenafil was examined on spatial working memory, a type of short-term memory that can be studied with the radial-arm water maze test. […] Mice were required to learn and memorize the location of a hidden platform in one of the arms of a maze with respect to spatial cues. […] However, daily injections of sildenafil for 3 weeks immediately after the 4th acquisition trial ameliorated the behavioural performance of APP/PS1 mice (FIG. 2B).
The effects of one course of 3-week treatment with sildenafil on spatial working memory were next tested using the radial-arm water-maze task. There was a difference between the number of errors made by vehicle-treated APP/PS1 and WT mice (FIG. 3B)^A12. Administration of sildenafil for 3 weeks, 9-12 weeks prior to the testing, reduced the gap between the two groups without affecting performance of the WT animals (FIG. 3B).
Three-month-old APP/PS1 and WT mice were separated into 4 groups: APP/PS1 mice treated with vehicle, APP/PS1 mice treated with PDE inhibitor, WT mice treated with vehicle, and WT mice treated with PDE inhibitor. […] In the remaining experiments, sildenafil was injected via i.p. The drug was administered either acutely or for 1 course of 3 week treatment. For assessment of the short-term effects of sildenafil, the drug was given at a concentration of 3 mg/kg immediately after the training. This dose yields concentrations of ˜2.5 μM cGMP in the hippocampus^A53. For assessment of long-term effects, sildenafil was given daily by i.p. injection at a concentration of 3 mg/kg for 3 weeks and then treatment was stopped for 9-12 weeks prior to behavioral testing. Contextual and cued fear conditioning was performed for 3 days. Radial-arm water-maze (RAWM) was performed for 3 weeks. Then, the animals were sacrificed for electrophysiological recordings. To decide the time of administration of sildenafil in the acute experiments, a series of studies was performed in which the inhibitor was injected i.p. at 5 min before the electric shock or at 5 min before the first acquisition trial with the radial arm water maze. […] Thus, all the behavioral experiments on the acute effects of sildenafil reported in the result section were performed with injection after the training.
This is a type of short-term memory that can be studied with the RAWM test^12. Briefly, the RAWM consisted of a white tank (120 cm diameter) filled with water (24-25° C.) and made opaque by the addition of non-toxic white paint. Within the tank walls were positioned so as to produce six arms, radiating from a central area. Spatial cues were presented on the walls of the testing room. At the end of one of the arms was positioned a clear 10 cm submerged (1.5 cm) platform that remained in the same location for every trial in one day, but was moved about randomly from day to day. On each trial the mouse started the task from a different randomly chosen arm. […] Each trial lasted 1 min and errors were counted each time the mouse entered the wrong arm or needed more than 20 sec to reach the platform. After each error the mouse was pulled back to the start arm for that trial. After 4 consecutive acquisition trials, the mouse was placed in its home cage for 30 min, then returned to the maze and administered a 5th retention trial. Testing was considered completed as the WT mice made the same number of errors at the 4th and 5th trial. The scores for each mouse on the last three days of testing were averaged and used for statistical analysis.

Data set [2] deals with mice infused with Aβ42. The data set is described as follows: Contextual fear memory in mice infused with Aβ42. Type of data set: in vivo, mouse. To be noted: 3 or 10 mg/Kg, p.o., immediately after training. Here is the method: Our next goal was to check if YF012403 can attenuate synaptic and cognitive dysfunction in APP/PS1 mice. We induced LTP or contextual fear memory in the presence of oligomeric Aβ42, or vehicle [S18]. In the LTP experiments 200 nM Aβ42 or vehicle were perfused through the bath solution for 20 min prior to the application of the θ-burst. In the behavioral experiments 200 nM Aβ42 or vehicle were bilaterally infused 15 min prior to the foot shock into dorsal hippocampus of the animal that had been pre-implanted with a cannula the week before. Aβ reduced LTP and contextual fear memory (FIG. 49). However, YF012403 (50 nM, for 10 min prior to the θ-burst in the LTP experiments; 3 or 10 mg/Kg, p.o., immediately after training in the behavioral experiments) ameliorated the electrophysiological and behavioral deficits (FIG. 49).

Data set [3] relates to CREB phosphorylation. Type of data set: cell-based, mouse.
For data set [4] the following is noted: humans; cited from earlier work.
For data set [5] the following is noted: in vivo, cited from earlier work.
The subject of data set [6] is APP/PS1 mice. Kind of data set: Morris water maze and probe trial (reference memory). It is filed as in vivo, mouse. The method, then: To investigate sildenafil effect on long-term memory, reference memory was tested with a Morris water maze task that is known to require hippocampal function^A20 and is impaired after 6 months of age in the APP/PS1 mice^A12. Vehicle-treated transgenic mice needed more time to find the hidden platform after six sessions compared to WT littermates (FIG. 3C). […] This task is performed after the sixth hidden-platform session. The platform is removed from the water and the animals are allowed to search for 60 seconds. A mouse, knowing that the platform was in a certain position, will trawl repeatedly over that position looking for it. […] The amount of time spent in each quadrant of the maze can be used to evaluate the spatial bias of an animal's search pattern. Vehicle-treated WT mice spent more time in the target quadrant (TQ), where the platform had been located during training than in other quadrants, than in the adjacent quadrant to the right (AR), in the adjacent quadrant to the left (AL), or in the opposite quadrant (OQ) (FIG. 3D). Also, sildenafil improved the performance of the APP/PS1 mice which searched more in the quadrant where the platform had been located during training than in other quadrants (FIG. 3D). […] Sildenafil-treated WT mice remembered where the platform was the previous days and spent about the same time as vehicle-treated WT littermates. […] Behavioral Studies-Reference Memory: The task studied with the Morris water maze has been previously described^12. Briefly, mice were trained in 2 daily sessions (4 hours apart), each consisting of 3 trials (1 minute each), for 3 days. Time required to reach the hidden platform was recorded. To test the retention of the spatial memory, 4 probe trials were performed after the training with the platform […]. The maze was divided into 4 quadrants. The percent of time spent in the quadrant that previously contained the platform was recorded and analyzed with a video tracking system ([…] Image).

Where [7] appears, read: treated at 3 months, tested at 6-8 months.
The mark [8] stands for this setting: 3 month-old APP/PS1, 3 mg/Kg i.p.
Where [9] appears, read: APP/PS1, 3 mg/Kg i.p. for 3 weeks at 3 months, tested 9-12 weeks later.
[10] abbreviates: WT, 3 mg/Kg i.p. for 3 weeks at 3 months, tested 9-12 weeks later.
[11] abbreviates: APP/PS1, 3 mg/Kg i.p. for 3 weeks at 3 months.
Setting [12] is: APP/PS1 previously treated with sildenafil.
Setting [13] is: WT previously treated with sildenafil.
[14] abbreviates: WT, 3 mg/Kg i.p. for 3 weeks at 3 months.

For `COc1ccc(CNc2c(CO)cnc3c(C4CC4)cc(C#N)cc23)cc1Cl` [YF012403, 4-(3-chloro-4-methoxybenzylamino)-8-cyclopropyl-3-(hydroxymethyl)-quinoline-6-carbonitrile], in data set [1] (APP/PS1 (transgenic) mice), the “effect on spatial working memory (RAWM) in words” value is “attenuated”. Moreover, the “effect on contextual fear memory deficit in Aβ42-infused mice in words” value in data set [2] is given as “ameliorates the contextual fear memory deficit; also recorded: ameliorated”.

In the case of `CCCc1nn(C)c2c(=O)[nH]c(-c3cc(S(=O)(=O)N4CCN(C)CC4)ccc3OCC)nc12` [sildenafil, 5-[2-ethoxy-5-(4-methyl-1-piperazinylsulphonyl)phenyl]-1-methyl-3-n-propyl-1,6-dihydro-7H-pyrazolo[4,3-d]pyrimidin-7-one], the “phospho-CREB immunofluorescence after tetanus, % of control” value in data set [3] was 162.58±17.09% and 163.54±13.52% and 163.6±15.14% and 151.73±12.24%. The in vivo half-life in data set [4] was roughly 4 h. The “ability to cross the BBB in words” value in data set [5] is “reported to cross the blood brain barrier; also recorded: reported to cross the BBB”. For the same compound, the “ability to cross the BBB in words” value in data set [5] (listed as Sildenafil) was “reported to cross the BBB”. Further, in data set [1] (setting [7]), the “minimum time needed for a positive effect on spatial working memory” value was 2 weeks and the “minimum concentration needed to improve spatial working memory” value was found to be 3 mg/kg. Also, the “minimum time needed for a positive effect on spatial working memory” value in data set [1] (3-month-old APP/PS1) turned out to be 2 weeks. Also, the “minimum concentration needed to improve spatial working memory” value in data set [1] (3-month-old APP/PS1, for 3 weeks) came to 3 mg/kg. Moreover, in data set [1] (setting [8]), the “RAWM errors, recall trial R” value amounted to 3.57±0.31 errors; the “RAWM errors, trial A1” value was 5.87±0.22 errors; the “RAWM errors, trial A4” value was determined as 3.39±0.39 errors. In data set [1] (3 month-old WT, 3 mg/Kg i.p.), the “RAWM errors, recall trial R” value is recorded as 1.9±0.35 errors; the “RAWM errors, trial A1” value is recorded as 5.5±0.23 errors; the “RAWM errors, trial A4” value is on record as 1.5±0.21 errors. Moreover, in data set [1] (setting [9]), the “RAWM errors, recall trial R” value is on record as 3±0.75 errors; the “RAWM errors, trial A1” value worked out at 6.16±0.39 errors; the “RAWM errors, trial A2” value is 4.16±0.53 errors; the “RAWM errors, trial A3” value is recorded as 3.5±0.41 errors. In addition, in data set [1] (setting [9]), the “RAWM errors, trial A4” value came to 2.83±0.61 errors. Besides, the “RAWM errors in the retention trial” value in data set [1] (APP/PS1, injected i.p. 5 min before the first acquisition trial) is roughly 5 errors. In data set [1] (setting [10]), the “RAWM errors, recall trial R” value turned out to be 2.33±0.36 errors; the “RAWM errors, trial A1” value stood at 6±0.29 errors; the “RAWM errors, trial A2” value came to 3.22±0.56 errors; the “RAWM errors, trial A3” value is 2.5±0.36 errors. The “RAWM errors, trial A4” value in data set [1] (setting [10]) stood at 1.83±0.16 errors. In data set [6] (3 mg/kg), the “minimum time needed to improve performance with the MWM” value came out at 2 weeks and the “minimum time needed to improve performance with the probe trial” value is given as 2 weeks. Moreover, in data set [6] (setting [11]), the “Morris water maze, time to find the hidden platform after six sessions” value is 32.92 ± 3.50 s and the “time to platform as % of vehicle-treated WT mice” value is given as roughly 114%. In data set [6] (setting [12]), the “probe test, % of time spent in target quadrant (TQ)” value is 32.25±0.58% and the “time in TQ as % of vehicle-treated WT littermates” value is recorded as roughly 97%. For the same compound, in data set [6] (setting [13]), the “probe test, % of time spent in target quadrant (TQ)” value is on record as 33.35±1.38% and the “time in TQ as % of vehicle-treated WT littermates” value is roughly 100%. Moreover, in data set [6] (setting [14]), the “Morris water maze, time to find the hidden platform” value turned out to be 25.64 ± 3.16 s and the “time to platform as % of vehicle-treated WT mice” value is given as roughly 89%. Moreover, in data set [6] (setting [7]), the “minimum concentration needed to improve performance with the MWM” value is 3 mg/kg and the “minimum concentration needed to improve performance with the probe trial” value is recorded as 3 mg/kg.
